# Data reported in patent US20090036518A1, “PHARMACEUTICAL COMPOSITION CONTAINING FLAVONOIDS” (TAIPEI MEDICAL UNIVERSITY, priority 2005, published 2009).
# Read-outs that look alike come from different tables or passages of the source.
# Key:
# PDE4H = details: cited from earlier work; for PDE4H/PDE4L ratio: literature values [23-26]
# PDE4 [1] = assay: Assay I: inhibition of cyclic nucleotide PDE activity (cAMP hydrolysis by PDE4); assay type: biochemical; details: guinea pig PDE4; 1 μM cAMP substrate; mean±S.E.M.; read-out: PDE4L (IC50) on PDE4 activity
# Description: Under a protocol approved by the Animal Care and Use Committee of Taipei Medical University, five male guinea pigs (Hartley), weighing 500-600 g, are sacrificed. The lungs (15 g) or hearts (4 g) taken therefrom are chopped into small pieces and homogenized with a glass/teflon homogenizer (Glas-Col, Terre Haute, Ind., USA) in 10 volumes of cold medium (pH 6.5) containing 20 mM Bis-tris, 2 mM benzamidine, 2 mM EDTA, 50 mM sodium chloride, 0.1 mM phenylmethanesulfonyl fluoride (PMSF), and 1 mM dithiothreitol. At 4 , the homogenate is centrifuged at 170 g for 15 min, and the supernatant thereof is then re-centrifuged at 40,000 g for 30 min. […] The column is washed with two bed volumes of homogenate buffer to remove unbound material, where the resin beads therein will bind with proteins, such as PDE proteins. Proteins bound to the Q-Sepharose beads are eluted with various concentrations (0.23, 0.34, 0.44, 0.69, and 1.00 M) of NaCl dissolved in homogenate buffer (for each concentration, 40-50 mL elution buffer are applied) at a flow rate of 30 ml/h. Fractions (3 ml each) are collected, and ethylene glycol (EG) is added thereto until a final concentration of 30% (v/v). And then the samples are frozen at […].
# The activities of PDE4 in the homogenate are measured with a two-step procedure according to the method of Thompson and Appleman, using cAMP with [^3H]-cAMP or cGMP with [^3H]-cGMP as substrates. The PDE enzyme prepared (25 μl) with 10 μl inhibitor or the solvents therefor is incubated for 30 min at 37 °C in a total assay buffer, where the final volume of the assay is amounted to 100 μl. In accordance with the features of the PDE isozymes, the assay buffer contains 50 mM Tris/HCl (pH 7.4), 3 mM MgCl2, 1 mM dithiothreitol, and 0.05% BSA, and optionally contains 1 μM cAMP with 0.2 μCi [^3H]-cAMP as a substrate alone or in the presence of 0.1 unit calmodulin with 10 μM CaCl2, or 5 μM cGMP, and 1 μM cGMP with 0.2 μCi [^3,H]-cGMP as another substrate alone or in the presence of 0.1 unit calmodulin with 10 μM CaCl2.
# The PDE enzyme and the inhibitors (or their solvent) therefor are mixed and incubated on ice for 30 min previously, and then mixed with the assay buffer. The assay is initiated by transferring the mixture to a water bath at 37 °C. Following the other 30 min incubation, the reaction is stopped by transferring the reaction vessel to a bath of boiling water for 3 min. After cooling on ice, 20 μl of the 1 mg/ml of Crotalus atrox venom is added to the reaction mixture, and the mixture is incubated at 37 °C for 10 min. The uncatalyzed substrates, such as cAMP, [^3H]-cAMP, cGMP, or [^3H]-cGMP are removed by the addition of 500 μl of a 1-in-1 Tris-HCl (40 mM) buffer suspension of Dowex resin (1×8-200) with incubation on ice for 30 min, since the bindings of the cyclic nucleotides and the resin. Each tube is then centrifuged for 2 min at 6000 rpm (3700 g), and 100 μl of the supernatant is removed and counted by a β-counter for calculating the enzyme (PDEs) activity.
# The dissociation constant of inhibitor binding (Ki) value is determined from the equation of apparent Km as a function of the inhibitor concentration (insert in A and B, respectively). The slope of the equation is equal to the value of […] (where KM is Michaelis constant). The amounts of the total proteins are calculated based on the analytical method reported by Bradford. In FIGS. 1A to 1D, all enzyme activities are shown as nmole of substrate per mg of proteins per minute (nmole/mg/min) hydrolyzed.
# [2] = test system: high affinity rolipram binding sites (HARBS) of the PDE4 (PDE4H); assay: Assay II: replacement of [3H]-rolipram bound on particulate HARBS of whole brain; parameters: species or system guinea pig; details: ratio of HARBS EC50 to PDE4 IC50
# Description: (§1) The binding experiments are carried on basis of the methods of Schneider et al and Zhao et al with a small modification. Under a protocol approved by the Animal Care and Use Committee of Taipei Medical University, five male guinea pigs (Hartley), weighing 500-600 g, are anesthetized. The whole brains taken therefrom are homogenized with in 10 volumes of cold medium (pH 6.5) containing 20 mM Bis-tris, 2 mM benzamidine, 2 mM EDTA, 50 mM sodium chloride, 0.1 mM phenylmethanesulfonyl fluoride (PMSF), and 1 mM dithiothreitol. At 4[…], the homogenate is centrifuged at 170 g for 15 min for removing blood vessels and connective tissues, and the supernatant thereof is then re-centrifuged at 40,000 g for 30 min for separating the particulates from the cytosol of cells.
# (§2) The final concentration of [^3H]-rolipram is 2 nM. […] After incubation, the reaction is stopped by transferring the reaction vessel to a bath of crashed ice. Then the reaction mixture is filtered through a punched glass fiber filter (Whatman GF/B) placed in a mini funnel, which is adopted to a 1.5 ml of Eppendorff's tube for collecting the filtrate in the mini centrifuge at 1000 rpm (100 g) for 10 seconds. By the same way (centrifugation), it is further washed with 0.3 ml reaction buffer each for three times. The Whatman GF/B filter is mixed with 2 ml of cocktail and counted by the β-scintillation counter (Backman, Fullerton, Calif., USA) for counting the radioactivity thereof.
# [3] = molecular target: T1, high affinity rolipram binding sites (HARBS) of the PDE4 (PDE4H); assay: as above; parameters: species or system guinea pig; details: guinea pig whole brain particulates, 2 nM [3H]-rolipram, mean±S.E.M., read-out: PDE4H (EC50) for replacing high-affinity [3H]-rolipram binding
# T1 construct: other: guinea pig whole brain particulates; 2 nM [3H]-r; guinea pig whole brain particul
# Description: as §1, §2
# PDE4 [4] = details: cited from earlier work
Compound,IC50 (PDE4 [1]) [µM],PDE4H/PDE4L ratio (EC50/IC50) [2],EC50 [3] [µM],further results
"O=C(Nc1c(Cl)cncc1Cl)C(=O)c1cn(Cc2ccc(F)cc2)c2ccc(O)cc12 [AWD-12-281, N-(3,5-dichloro-pyrid-4-yl)-[1-(4-fluorobenzyl)-5-hydroxy-indole-3-yl]-glyo xylic acid amide]",,,,PDE4H/PDE4L ratio (PDE4H): about 11
COc1ccc(-c2coc3cc(O)cc(O)c3c2=O)cc1 [Biochanin A],8.5 ± 0.1,>35,> 300,
COc1ccc(-c2cc(=O)c3c(O)cc(O)cc3o2)cc1O [Diosmetin],20.2 ± 2.4,,,
O=c1c(-c2ccc(O)cc2)coc2cc(O)cc(O)c12 [Genistein],9.5 ± 1.9,,47.8 ± 15.9,"IC50 (PDE4 [4]; reported by Nichols and Morimoto [18], read-out: IC50 for PDE4 inhibition): 5 µM"
"COc1ccc(C2CC(=O)c3c(OC(C)=O)cc(OC(C)=O)cc3O2)cc1OC(C)=O (stereo not drawn) [Hesperetin-5,7,3′-O-triacetate (HTA), Hesperetin-5,7,3′-O-triacetate]",14.4 ± 1.8,>21,> 300,
"COc1cc(OC)c2c(c1)OC(c1ccc(OC)c(OC)c1)CC2=O (stereo not drawn) [Hesperetin-5,7,3′-O-trimethylether]",9.4 ± 2.9,18,171 ± 32.9,
"COc1cc(O)c2c(c1)OC(c1ccc(OC)c(OC)c1)CC2=O (stereo not drawn) [Hesperetin-7,3′-O-dimethylether (HDME), Hesperetin-7,3′-O-dimethylether]",3 ± 0.9,35.5,107 ± 39.5,
COc1ccc(C2CC(=O)c3c(O)cc(O)cc3O2)cc1O (stereo not drawn) [Hesperetin],28.2 ± 1.1,,> 300,
O=c1cc(-c2ccc(O)c(O)c2)oc2cc(O[C@@H]3O[C@H](CO)[C@@H](O)[C@H](O)[C@H]3O)cc(O)c12 [Luteolin-7-glucoside],,>7,> 300,
O=c1c(O)c(-c2cc(O)c(O)c(O)c2)oc2cc(O)cc(O)c12 [Myricetin],39.8 ± 2.1,>7.5,> 300,
COc1cc(O)c2c(=O)c(-c3ccc(O)cc3)coc2c1 [Prunetin],61.9 ± 17.3,>4.8,> 300,
"COc1c(-c2ccc(O)c(O)c2)oc2cc(O)cc(O)c2c1=O [Qercetin-3-O-methylether (3-MQ), Qercetin-3-O-methylether]",28.5 ± 5.8,0.61,17.4 ± 4,
"CC(=O)Oc1cc(OC(C)=O)c2c(=O)c(OC(C)=O)c(-c3ccc(OC(C)=O)c(OC(C)=O)c3)oc2c1 [Quercetin-3,5,7,3′,4′-O-pentaacetate]",18.5 ± 4.6,4.48,82.8 ± 22.3,
"COc1cc(OC)c2c(=O)c(OC)c(-c3ccc(OC)c(OC)c3)oc2c1 [Quercetin-3,5,7,3′,4′-O-petamethylether]",5.1 ± 1.4,11,56 ± 22.7,
"COc1cc(O)c2c(=O)c(OC)c(-c3ccc(OC)c(OC)c3)oc2c1 [Quercetin-3,7,3′,4′-O-tetramethylether]",> 100,,> 300,
"COc1cc(O)c2c(=O)c(OC)c(-c3ccc(OC)c(O)c3)oc2c1 [Quercetin-3,7,4′-O-trimethylether]",15.8 ± 4.4,>19,> 300,
"COc1c(-c2ccc(OC(C)=O)c(OC(C)=O)c2)oc2cc(OC(C)=O)cc(OC(C)=O)c2c1=O [Quercetin-3-O-methyl-5,7,3′,4′-O-tetraacetate]",3.9 ± 0.6,1,3.9 ± 1.4,
O=c1c(O)c(-c2ccc(O)c(O)c2)oc2cc(O)cc(O)c12 [Quercetin],9.9 ± 2.5,>30,> 300,
"CCCCOc1cc(CC2CNC(=O)N2)ccc1OC (stereo not drawn) [Ro 20-1724, reference compound]",8.7 ± 1.9,,,EC50 ([3]; reference drugs): 0.087 ± 0.029 µM
"COc1ccc(C2CNC(=O)C2)cc1OC1CCCC1 (stereo not drawn) [Rolipram, reference compound]",[…],[…],,"EC50 ([3]; reference drugs): 0.0052 ± 0.0019 µM; IC50 (PDE4 [4]; literature [23], read-out: IC50 for binding PDE4L): […]; EC50 (PDE4H; literature [23], read-out: EC50 for binding PDE4H): […]; PDE4H/PDE4L ratio (PDE4H): […]"
COc1ccc([C@]2(C#N)CC[C@@H](C(=O)O)CC2)cc1OC1CCCC1 [cilomilast],,,,PDE4H/PDE4L ratio (PDE4H): about 1
O=C(Nc1c(Cl)cncc1Cl)c1ccc(OC(F)F)c(OCC2CC2)c1 [roflumilast],,,,PDE4H/PDE4L ratio (PDE4H): 3
